Structures are written as SMILES.

This assay deals with T1, HCV NS3-4A serine protease (full-length NS3-4A protein, genotype 1a, strain HCV-1) (Hepatitis C virus genotype 1a, UniProt P26664).
T1 construct: using the full-length NS3-4A protein (genotype 1a, strain HCV-1)
T1 sequence (P26664 1658-1711): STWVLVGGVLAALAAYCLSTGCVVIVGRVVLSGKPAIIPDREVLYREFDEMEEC
T1 sequence (P26664 1027-1657): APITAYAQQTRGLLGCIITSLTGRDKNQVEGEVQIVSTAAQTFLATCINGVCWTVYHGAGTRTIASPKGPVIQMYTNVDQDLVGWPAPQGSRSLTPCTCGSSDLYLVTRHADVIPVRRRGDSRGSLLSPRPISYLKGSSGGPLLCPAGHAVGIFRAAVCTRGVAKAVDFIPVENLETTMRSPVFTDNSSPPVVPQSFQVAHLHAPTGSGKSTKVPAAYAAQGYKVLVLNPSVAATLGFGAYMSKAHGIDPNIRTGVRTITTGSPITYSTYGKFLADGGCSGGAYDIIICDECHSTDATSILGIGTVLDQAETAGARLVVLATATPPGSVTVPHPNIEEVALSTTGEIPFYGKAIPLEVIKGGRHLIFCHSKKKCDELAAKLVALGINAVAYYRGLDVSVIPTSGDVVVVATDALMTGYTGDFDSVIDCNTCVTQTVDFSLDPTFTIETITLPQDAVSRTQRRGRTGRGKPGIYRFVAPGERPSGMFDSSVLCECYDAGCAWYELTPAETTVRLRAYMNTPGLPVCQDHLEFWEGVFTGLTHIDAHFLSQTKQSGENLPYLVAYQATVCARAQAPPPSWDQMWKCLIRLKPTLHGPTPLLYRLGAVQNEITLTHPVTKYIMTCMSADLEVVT
Description: HCV NS3-4A protease assay. Format: biochemical. The conditions noted are these: Protease IC50. The procedure:
The inhibitory activity of certain compounds of Table A against HCV NS3-4A serine protease is determined in a homogenous assay using the full-length NS3-4A protein (genotype 1a, strain HCV-1) and a commercially available internally-quenched fluorogenic peptide substrate as described by Taliani, M., et al. 1996 Anal. Biochem. 240:60-67, which is incorporated by reference in its entirety.
`C=C[C@@H]1C[C@]1(NC(=O)[C@@H]1C[C@@]2(CN1C(=O)[C@@H](NC(=O)[C@@H](NC(=O)c1cocn1)C1CCCCC1)C(C)(C)C)C(C)(C)C21CCC1)C(=O)NS(=O)(=O)C1CC1` [Compound 112, (5R,8S)-7-[(2S)-2-({(2S)-2-cyclohexyl-2-[(1,3-oxazol-4-ylcarbonyl)amino]acetyl}amino)-3,3-dimethylbutanoyl]-N-{(1R,2S)-1-[(cyclopropylsulfonyl)carba-moyl]-2-vinylcyclopropyl}-10,10-dimethyl-7-azadispiro[3.0.4.1]decane-8-carboxamide] registered a half-inhibitory concentration (IC50) of 1.5 nM.
For the compound `C=C[C@@H]1C[C@]1(NC(=O)[C@@H]1C[C@@]2(CN1C(=O)[C@@H](NC(=O)[C@@H](NC(=O)c1cnco1)C1CCCCC1)C(C)(C)C)C(C)(C)C21CCC1)C(=O)NS(=O)(=O)C1CC1` [Compound 113, (5R,8S)-7-[(2S)-2-({(2S)-2-cyclohexyl-2-[(1,3-oxazol-5-ylcarbonyl)amino]acetyl}amino)-3,3-dimethylbutanoyl]-N-{(1R,2S)-1-[(cyclopropylsulfonyl)carba-moyl]-2-vinylcyclopropyl}-10,10-dimethyl-7-azadispiro[3.0.4.1]decane-8-carboxamide], the IC50 was 2.5 nM.
Then `C=C[C@@H]1C[C@]1(NC(=O)[C@@H]1C[C@@]2(CN1C(=O)[C@@H](NC(=O)[C@@H](NC(=O)c1ccc[nH]1)C1CCCCC1)C(C)(C)C)C(C)(C)C21CCC1)C(=O)NS(=O)(=O)C1CC1` [Compound 114, (5R,8S)-7-[(2S)-2-({(2S)-2-cyclohexyl-2-[(1H-pyrrol-2-ylcarbonyl)amino]acetyl}amino)-3,3-dimethylbutanoyl]-N-{(1R,2S)-1-[(cyclopropylsulfonyl)carba-moyl]-2-vinylcyclopropyl}-10,10-dimethyl-7-azadispiro[3.0.4.1]decane-8-carboxamide], with 0.7 nM.
Regarding `C=C[C@@H]1C[C@]1(NC(=O)[C@@H]1C[C@@]2(CN1C(=O)[C@@H](NC(=O)[C@@H](NC(=O)c1ccncn1)C1CCCCC1)C(C)(C)C)C(C)(C)C21CCC1)C(=O)NS(=O)(=O)C1CC1` [Compound 115, (5R,8S)-7-[(2S)-2-({(2S)-2-cyclohexyl-2-[(pyrimidin-4-ylcarbonyl)amino]acetyl}amino)-3,3-dimethylbutanoyl]-N-{(1R,2S)-1-[(cyclopropylsulfonyl)carba-moyl]-2-vinylcyclopropyl}-10,10-dimethyl-7-azadispiro[3.0.4.1]decane-8-carboxamide], half-maximal inhibition (IC50) required 0.6 nM.
`C=C[C@@H]1C[C@]1(NC(=O)[C@@H]1C[C@@]2(CN1C(=O)[C@@H](NC(=O)[C@@H](NC(=O)c1cncnc1)C1CCCCC1)C(C)(C)C)C(C)(C)C21CCC1)C(=O)NS(=O)(=O)C1CC1` [Compound 116, (5R,8S)-7-[(2S)-2-({(2S)-2-cyclohexyl-2-[(pyrimidin-5-ylcarbonyl)amino]acetyl}amino)-3,3-dimethylbutanoyl]-N-{(1R,2S)-1-[(cyclopropylsulfonyl)carba-moyl]-2-vinylcyclopropyl}-10,10-dimethyl-7-azadispiro[3.0.4.1]decane-8-carboxamide] had a concentration for half-maximal inhibition (IC50) of 0.6 nM.
As for `C=C[C@@H]1C[C@]1(NC(=O)[C@@H]1C[C@@]2(CN1C(=O)[C@@H](NC(=O)[C@@H](NC(=O)c1ncccn1)C1CCCCC1)C(C)(C)C)C(C)(C)C21CCC1)C(=O)NS(=O)(=O)C1CC1` [Compound 117, (5R,8S)-7-[(2S)-2-({(2S)-2-cyclohexyl-2-[(pyrimidin-2-ylcarbonyl)amino]acetyl}amino)-3,3-dimethylbutanoyl]-N-{(1R,2S)-1-[(cyclopropylsulfonyl)carba-moyl]-2-vinylcyclopropyl}-10,10-dimethyl-7-azadispiro[3.0.4.1]decane-8-carboxamide], the IC50 was 8 nM.
Consider `C=C[C@@H]1C[C@]1(NC(=O)[C@@H]1C[C@@]2(CN1C(=O)[C@@H](NC(=O)[C@@H](NC(=O)c1[nH]c(C)c(C)c1C(C)=O)C1CCCCC1)C(C)(C)C)C(C)(C)C21CCC1)C(=O)NS(=O)(=O)C1CC1` [Compound 118, (5R,8S)-7-[(2S)-2-{[(2S)-2-{[(3-acetyl-4,5-dimethyl-1H-pyrrol-2-yl)carbonyl]amino}-2-cyclohexylacetyl]amino}-3,3-dimethylbutanoyl]-N-{(1R,2S)-1-[(cyclopropylsulfonyl)carba-moyl]-2-vinylcyclopropyl}-10,10-dimethyl-7-azadispiro[3.0.4.1]decane-8-carboxamide], for which 1.4 nM corresponded to half-maximal inhibition (IC50).
In the case of `C=C[C@@H]1C[C@]1(NC(=O)[C@@H]1C[C@@]2(CN1C(=O)[C@@H](NC(=O)[C@@H](NC(=O)C(C)(C)N1CCCCC1)C(C)(C)C)C(C)(C)C)C(C)(C)C21CCC1)C(=O)NS(=O)(=O)C1CC1` [Compound 119, (5R,8S)-N-{(1R,2S)-1-[(cyclopropylsulfonyl)carba-moyl]-2-vinylcyclopropyl}-7-[(2S)-2-({(2S)-3,3-dimethyl-2-[(2-methyl-2-piperidin-1-ylpropanoyl)amino]butanoyl}amino)-3,3-dimethylbutanoyl]-10,10-dimethyl-7-azadispiro[3.0.4.1]decane-8-carboxamide], half-maximal inhibition (IC50) was put at 3.5 nM.
Then `C=C[C@@H]1C[C@]1(NC(=O)[C@@H]1C[C@@]2(CN1C(=O)[C@@H](NC(=O)[C@@H](NC(=O)c1nc3ccccc3[nH]1)C(C)(C)C)C(C)(C)C)C(C)(C)C21CCC1)C(=O)NS(=O)(=O)C1CC1` [Compound 120, (5R,8S)-7-[(2S)-2-({(2S)-2-[(1H-benzimidazol-2-ylcarbonyl)amino]-3,3-dimethylbutanoyl}amino)-3,3-dimethylbutanoyl]-N-{(1R,2S)-1-[(cyclopropylsulfonyl)carba-moyl]-2-vinylcyclopropyl}-10,10-dimethyl-7-azadispiro[3.0.4.1]decane-8-carboxamide], with 0.7 nM; and `C=C[C@@H]1C[C@]1(NC(=O)[C@@H]1C[C@@]2(CN1C(=O)[C@@H](NC(=O)[C@@H](NC(=O)c1ccno1)C(C)(C)C)C(C)(C)C)C(C)(C)C21CCC1)C(=O)NS(=O)(=O)C1CC1` [Compound 121, (5R,8S)-N-{(1R,2S)-1-[(cyclopropylsulfonyl)carba-moyl]-2-vinylcyclopropyl}-7-[(2S)-2-({(2S)-2-[(isoxazol-5-ylcarbonyl)amino]-3,3-dimethylbutanoyl}amino)-3,3-dimethylbutanoyl]-10,10-dimethyl-7-azadispiro[3.0.4.1]decane-8-carboxamide], with 9 nM.
For the compound `C=C[C@@H]1C[C@]1(NC(=O)[C@@H]1C[C@@]2(CN1C(=O)[C@@H](NC(=O)[C@@H](NC(=O)c1ncc[nH]1)C(C)(C)C)C(C)(C)C)C(C)(C)C21CCC1)C(=O)NS(=O)(=O)C1CC1` [Compound 122, (5R,8S)-N-{(1R,2S)-1-[(cyclopropylsulfonyl)carba-moyl]-2-vinylcyclopropyl}-7-[(2S)-2-({(2S)-2-[(1H-imidazol-2-ylcarbonyl)amino]-3,3-dimethylbutanoyl}amino)-3,3-dimethylbutanoyl]-10,10-dimethyl-7-azadispiro[3.0.4.1]decane-8-carboxamide], the concentration for half-maximal inhibition (IC50) is 3 nM.
Take `C=C[C@H]1C[C@@]1(NC(=O)C1C[C@@]2(CN1C(=O)[C@@H](NC(=O)[C@@H](NC(=O)C1CCN1C(C)(C)C)C(C)(C)C)C(C)(C)C)C(C)(C)C21CCC1)C(=O)NS(=O)(=O)C1CC1` (stereo partly drawn) [Compound 123, (5R)-7-[(2S)-2-{[(2S)-2-{[(1-tert-butylazetidin-2-yl)carbonyl]amino}-3,3-dimethylbutanoyl]amino}-3,3-dimethylbutanoyl]-N-{(1S,2R)-1-[(cyclopropylsulfonyl)carba-moyl]-2-vinylcyclopropyl}-10,10-dimethyl-7-azadispiro[3.0.4.1]decane-8-carboxamide]: the IC50 turned out to be 6 nM.
`C=C[C@@H]1C[C@]1(NC(=O)[C@@H]1C[C@@]2(CN1C(=O)[C@@H](NC(=O)C(NC(=O)c1ccccc1Nc1ccccc1)C1CCCCC1)C(C)(C)C)C(C)(C)C21CCC1)C(=O)NS(=O)(=O)C1CC1` (stereo partly drawn) [Compound 124, (5R,8S)-7-[(2S)-2-({[(2-anilinobenzoyl)amino](cyclo-hexyl)acetyl}amino)-3,3-dimethylbutanoyl]-N-{(1R,2S)-1-[(cyclopropylsulfonyl)carba-moyl]-2-vinylcyclopropyl}-10,10-dimethyl-7-azadispiro[3.0.4.1]decane-8-carboxamide]: it took 30 nM to reach half-maximal inhibition (IC50).
Regarding `C=C[C@@H]1C[C@]1(NC(=O)[C@@H]1C[C@@]2(CN1C(=O)[C@@H](NC(=O)C(NC(=O)c1cc3ccccc3[nH]1)C1CCCCC1)C(C)(C)C)C(C)(C)C21CCC1)C(=O)NS(=O)(=O)C1CC1` (stereo partly drawn) [Compound 125, (5R,8S)-7-[(2S)-2-({cyclohexyl[(1H-indol-2-ylcarbonyl)amino]acetyl}amino)-3,3-dimethylbutanoyl]-N-{(1R,2S)-1-[(cyclopropylsulfonyl)carba-moyl]-2-vinylcyclopropyl}-10,10-dimethyl-7-azadispiro[3.0.4.1]decane-8-carboxamide], the concentration for half-maximal inhibition (IC50) came out at 1.5 nM.
For `C=C[C@@H]1C[C@]1(NC(=O)[C@@H]1C[C@@]2(CN1C(=O)[C@@H](NC(=O)C(NC(=O)c1cc(C(C)(C)C)nn1C)C1CCCCC1)C(C)(C)C)C(C)(C)C21CCC1)C(=O)NS(=O)(=O)C1CC1` (stereo partly drawn) [Compound 126, (5R,8S)-7-[(2S)-2-{[{[(3-tert-butyl-1-methyl-1H-pyrazol-5-yl)carbonyl]amino}(cyclohex-yl)acetyl]amino}-3,3-dimethylbutanoyl]-N-{(1R,2S)-1-[(cyclopropylsulfonyl)carba-moyl]-2-vinylcyclopropyl}-10,10-dimethyl-7-azadispiro[3.0.4.1]decane-8-carboxamide], it took 8 nM to reach half-maximal inhibition (IC50).

Usually IC50 stands for the concentration that inhibits the measured activity by half.
